Measurements from US20080318938A1, “METHODS FOR TREATING ABERRANT CELL PROLIFERATION DISORDERS” (priority 2007, published 2008).

How the values were obtained:
Test in all cases: Inhibition of cell proliferation (MTT)
Assay type in all cases: cell-based
[1] = system: Daudi; details: Homo sapiens, Lymphoma, 48 hours
Experimental: (§1) Inhibition of cell proliferation is determined in human tumor cell lines. Innoculation density and doubling times for specific cell lines are listed at World Wide Web URL “dtp.nci.nih.gov/docs/misc/common_files/cell_list.html.”
(§2) • 1. Plate adherent cells the day before starting the experiment in 180 μl growth media (see list hereafter). • 2. Day of experiment, count and plate suspension cells in 180 μl growth media (see list on next page). • 3. Make 10× Compound, vehicle, and chemotherapeutic cocktail • a. Compound (1× to 10×) • i. 10 μM Compound to 100 μM • ii. 3 μM Compound to 30 μM • iii. 1 μM Compound to 10 μM • iv. 0.3 μM Compound to 3 μM • v. 0.1 μM Compound to 1 μM • b. Vehicle • i. PBS, equivalent to the volume used for 10 μM Compound (1× is ˜0.06% PBS) • c. Chemotherapeutic cocktail (1× to 10×): • i. 1 μM Velcade to 10 μM • ii. 100 μM Etoposide to 1 mM • iii. 20 μM Taxol to 200 μM • 4. Add 20 μl of the 10× compound/vehicle/chemotherapeutic cocktail to cells. • 5. Incubate at 37° C., 5% CO2 for 48 hours. • 6. Aspirate media. For suspension cells, spin plate at 1500 RPM for 10 minutes. Use a multichannel pipettor to slowly remove media. • 7. Add 200 μl of Thiazolyl Blue Tetrazolium Bromide (MTT) to each well: 0.863 mg/ml MTT in growth media.
(§3) Proliferation of several cancer cells was inhibited by compound TA1-1B (which is a particular mixture of the isomers represented by TA1-1A), as shown in the following table (Table 1). The value EC50 is the amount of Compound TA1-1B that results in 50% inhibition of proliferation of the indicated cell type.

[2] = system: GDM-1; details: Homo sapiens; GDM-1, Leukemia; 48 hours
Experimental: as §1, §2, §3

[3] = system: H9; details: Homo sapiens; H9, Lymphoma; 48 hours
Experimental: as §1, §2, §3

[4] = system: HCC-2998; details: Homo sapiens; HCC-2998, Colon; 48 hours
Experimental: as §1, §2, §3

[5] = system: HCT-15; details: Homo sapiens; HCT-15, Colon; 48 hours
Experimental: as §1, §2, §3

[6] = system: HS 578T; details: Homo sapiens, Breast, 48 hours
Experimental: as §1, §2, §3

[7] = system: HuT102; details: Homo sapiens, HuT-102; HuT102, Lymphoma; 48 hours
Experimental: as §1, §2, §3

[8] = system: I 9.2; details: Homo sapiens; I 9.2, Leukemia; 48 hours
Experimental: as §1, §2, §3

[9] = system: IGROV1; details: Homo sapiens, IGROV-1; IGROV1, Ovarian; 48 hours
Experimental: as §1, §2, §3

[10] = system: JM1; details: Homo sapiens; JM1, Lymphoma; 48 hours
Experimental: as §1, §2, §3

[11] = system: Jgamma-1; details: Homo sapiens, J.gamma1; Jgamma-1, Leukemia; 48 hours
Experimental: as §1, §2, §3

[12] = system: Jurkat; details: Homo sapiens, Leukemia, 48 hours
Experimental: as §1, §2, §3

[13] = system: KG-1; details: Homo sapiens; KG-1, Leukemia; 48 hours
Experimental: as §1, §2, §3

[14] = system: KM12; details: Homo sapiens; KM12, Colon; 48 hours
Experimental: as §1, §2, §3

[15] = system: Kasumi-1; details: Homo sapiens; Kasumi-1, Leukemia; 48 hours
Experimental: as §1, §2, §3

[16] = system: Ku-812; details: Homo sapiens, KU812; Ku-812, Leukemia; 48 hours
Experimental: as §1, §2, §3

[17] = system: MALME-3M; details: Homo sapiens, Melanoma, 48 hours
Experimental: as §1, §2, §3

[18] = system: MC116; details: Homo sapiens; MC116, Lymphoma; 48 hours
Experimental: as §1, §2, §3

[19] = system: MOLT-3; details: Homo sapiens; MOLT-3, Leukemia; 48 hours
Experimental: as §1, §2, §3

[20] = system: MOLT4; details: Homo sapiens, MOLT-4; MOLT4, Leukemia; 48 hours
Experimental: as §1, §2, §3

[21] = system: NC37; details: Homo sapiens, NC-37; NC37, Lymphoma; 48 hours
Experimental: as §1, §2, §3

[22] = system: NCI-H322M; details: Homo sapiens, Non Small Cell Lung, 48 hours
Experimental: as §1, §2, §3

[23] = system: NCI-H522; details: Homo sapiens; NCI-H522, Non Small Cell Lung; 48 hours
Experimental: as §1, §2, §3

[24] = system: Namalwa; details: Homo sapiens, Lymphoma, 48 hours
Experimental: as §1, §2, §3

[25] = system: OVCAR-3; details: Homo sapiens; OVCAR-3, Ovarian; 48 hours
Experimental: as §1, §2, §3

[26] = system: OVCAR-4; details: Homo sapiens; OVCAR-4, Ovarian; 48 hours
Experimental: as §1, §2, §3

[27] = system: PC-3; details: Homo sapiens; PC-3, Prostate; 48 hours
Experimental: as §1, §2, §3

[28] = system: SN12C; details: Homo sapiens, Renal, 48 hours
Experimental: as §1, §2, §3

[29] = system: SNB-19; details: Homo sapiens; SNB-19, CNS; 48 hours
Experimental: as §1, §2, §3

[30] = system: ST486; details: Homo sapiens; ST486, Lymphoma; 48 hours
Experimental: as §1, §2, §3

[31] = system: UACC-257; details: Homo sapiens; UACC-257, Melanoma; 48 hours
Experimental: as §1, §2, §3

Question: `CN1CCC[C@H]1CCNC(=O)c1cn2c3c(c(N4CCC(c5cnccn5)C4)c(F)cc3c1=O)Oc1cc3ccccc3cc1-2` (stereo partly shown) [TA1-1B] was tested. Which EC50 [1] did it give?
Answer: The EC50 was 1.29 µM.

Question: And the EC50 [2]?
Answer: Its EC50 is 1.26 µM.

Question: What about the EC50 [3] of the same compound?
Answer: Its EC50 is 2.24 µM.

Question: What about the EC50 [4] of the same compound?
Answer: The EC50 was 2.54 µM.

Question: What about the EC50 [5] of the same compound?
Answer: Its EC50 is 1.51 µM.

Question: And the EC50 [6]?
Answer: Its EC50 is 1.94 µM.

Question: What about the EC50 [7] of the same compound?
Answer: Its EC50 is 1.05 µM.

Question: And the EC50 [8]?
Answer: The EC50 was 3.69 µM.

Question: And the EC50 [9]?
Answer: The EC50 was 4.44 µM.

Question: And the EC50 [10]?
Answer: The EC50 was 2.23 µM.

Question: What about the EC50 [11] of the same compound?
Answer: The EC50 was 1.72 µM.

Question: What about the EC50 [12] of the same compound?
Answer: The EC50 was 1.21 µM.

Question: What about the EC50 [13] of the same compound?
Answer: Its EC50 is 3.97 µM.

Question: And the EC50 [14]?
Answer: Its EC50 is 3.06 µM.

Question: What about the EC50 [15] of the same compound?
Answer: The EC50 was 2.05 µM.

Question: What about the EC50 [16] of the same compound?
Answer: The EC50 was 4.19 µM.

Question: What about the EC50 [17] of the same compound?
Answer: The EC50 was 5.09 µM.

Question: And the EC50 [18]?
Answer: Its EC50 is 3.87 µM.

Question: What about the EC50 [19] of the same compound?
Answer: The EC50 was 1.14 µM.

Question: And the EC50 [20]?
Answer: Its EC50 is 1.22 µM.

Question: What about the EC50 [21] of the same compound?
Answer: Its EC50 is 1.26 µM.

Question: And the EC50 [22]?
Answer: Its EC50 is 4.28 µM.

Question: And the EC50 [23]?
Answer: The EC50 was 1.5 µM.

Question: And the EC50 [24]?
Answer: Its EC50 is 1.42 µM.

Question: And the EC50 [25]?
Answer: Its EC50 is 4.28 µM.

Question: And the EC50 [26]?
Answer: Its EC50 is 2.96 µM.

Question: And the EC50 [27]?
Answer: The EC50 was 4.96 µM.

Question: And the EC50 [28]?
Answer: Its EC50 is 4.16 µM.

Question: What about the EC50 [29] of the same compound?
Answer: The EC50 was 4.63 µM.

Question: What about the EC50 [30] of the same compound?
Answer: Its EC50 is 1.28 µM.

Question: And the EC50 [31]?
Answer: The EC50 was 5.1 µM.
